Reference: patent publication US20050027003A1, “Methods of therapeutic treatment using retinoids with reduced side effects” (Allergan, Inc., priority 2003, published 2005)
Read-outs that look alike come from different tables or passages of the source.

Experiments:
[1] = in vivo; cited from earlier work
patients [2] = conditions: published data (N = 525); cited from earlier work
[3] = in vivo; cited from earlier work; remark: listed apart in the source
[4] = oral; cited from earlier work
patients [5] = conditions: published data (N = 525); cited from earlier work; remark: listed apart in the source
RAR-α = molecular target: T1, RAR-α (Homo sapiens, UniProt P10276); assay: RAR-α activity; type: cell-based
T1 sequence (P10276 1-462): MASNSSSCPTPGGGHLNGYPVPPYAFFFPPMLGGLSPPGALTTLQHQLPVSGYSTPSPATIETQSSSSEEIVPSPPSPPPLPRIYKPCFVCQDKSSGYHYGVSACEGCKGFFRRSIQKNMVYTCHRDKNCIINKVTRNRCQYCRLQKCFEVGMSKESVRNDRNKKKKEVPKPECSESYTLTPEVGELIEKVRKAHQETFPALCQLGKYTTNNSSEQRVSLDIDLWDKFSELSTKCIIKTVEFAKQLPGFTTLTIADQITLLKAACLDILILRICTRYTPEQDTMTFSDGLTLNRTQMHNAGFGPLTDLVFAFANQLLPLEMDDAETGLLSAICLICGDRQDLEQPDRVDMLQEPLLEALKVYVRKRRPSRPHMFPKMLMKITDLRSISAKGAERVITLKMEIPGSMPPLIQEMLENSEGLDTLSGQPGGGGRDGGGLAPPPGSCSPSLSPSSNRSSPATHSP
Text: (§1) The selection of a retinoid component useful in accordance with the present invention can be accomplished using straightforward, conventional testing and/or assays, such as the transactivation assays set forth in Evans et al., U.S. Pat. Nos., 5,217,867; 5,262,300; 5,310,662; and 5,906,920, each of which is hereby incorporated in its entirety herein by reference, which are well known in the art. Such testing and/or assays can identify suitable useful retinoid components without undue experimentation.
(§2) Other well known and straightforward test methods and/or assays may be employed to determine the selectivity or specificity of an RAR active compound to RAR-alpha, RAR-beta and RAR-gamma. For example, using conventional and well known assays, for example, such as set forth in Klein et al. U.S. Pat. No. 5,776,699, the disclosure of which is incorporated in its entirety herein by reference, and/or the above-noted Evans et al. patents, the selectively or specificity of a compound to RAR-alpha, RAR-beta and RAR-gamma can be determined. Based on the results of such assays, one can determine whether or not a compound is useful in accordance with one or more aspects of the present invention.

RARs = assay: Activation of and selectivity among the retinoic acid receptors; type: cell-based; conditions: relative to all-trans-retinoic acid, the natural ligand
Text: as §1, §2

[6] = Example 1: 6.3 mg oral tazarotene with high-fat meal vs 8-10 hour fast, pharmacokinetics; type: in vivo, human
Procedure: (§3) The LC-MS/MS test for simultaneous detection of tazarotene and tazarotenic acid may be run as follows. One ml of plasma (EDTA-treated) is diluted with 1.0 ml of water. Diluted plasma is extracted using solid phase extraction (SPE) on a C18 cartridge. The eluate is evaporated, reconstituted in a water/methanol-based mobile phase, and injected onto a 4.6×50 mm, 3 μm pore size C-8 reverse phase high pressure liquid chromatography (HPLC) column (Agilent, Wilmington, Del.). Compounds are gradient-eluted at 1.2 mL/min and detected using an API 3000 triple quadrupole mass spectrometer with an Atmospheric Pressure Chemical Ionization (APCI) source (PE-Sciex, Concord, Ontario, Canada). Molecular reaction monitoring enhances the sensitivity and selectivity of this assay by collisionally dissociating the protonated molecules for the analyte and an internal standard thereby forming the product ions. The specific precursor-product ion pair monitored are m/z 352→324 for tazarotene, m/z 359→331 for the tazarotene internal standard, m/z 324→294 for tazarotenic acid, and m/z 331+298 for the tazarotenic acid internal standard. The lower limit of quantitation at assay range tested is 0.1 ng/mL, with a coefficient of variation and deviation from nominal concentration of <15%.

[7] = Example 7: effect of body weight on plasma tazarotenic acid Cmax and AUC; type: in vivo, human; conditions: 6 mg tazarotene daily
Procedure: as §3, with “<15%. […]” for “<15%.”

Question: With `COc1cc(C)c(/C=C/C(C)=C/C=C/C(C)=C/C(=O)O)c(C)c1C` [acitretin] as the compound, how does the “interaction with coadministered contraceptives” value [1] read?
Answer: The value was “interferes with the contraceptive effect”.

Question: What about the “Adverse event: Alopecia” value (patients [2]) of the same compound?
Answer: The value was 319 (60.8) number (%) of patients.

Question: And the “Adverse event: Arthralgia” value (patients [2])?
Answer: The value was 102 (19.4) number (%) of patients.

Question: What about the “Adverse event: Atrophy of skin” value (patients [2]) of the same compound?
Answer: Its value is 64 (12.2) number (%) of patients.

Question: What about the “Adverse event: Back pain” value (patients [2]) of the same compound?
Answer: The value was 41 (7.8) number (%) of patients.

Question: And the “Adverse event: Cheilitis” value (patients [2])?
Answer: Its value is 429 (81.7) number (%) of patients.

Question: And the “Adverse event: Dry Skin” value (patients [2])?
Answer: The value was 174 (33.1) number (%) of patients.

Question: And the “Adverse event: Dry mouth/Oral dryness” value (patients [2])?
Answer: Its value is 76 (14.5) number (%) of patients.

Question: And the “Adverse event: Epistaxis” value (patients [2])?
Answer: The value was 61 (11.6) number (%) of patients.

Question: What about the “Adverse event: Erythematous rash/Erythema” value (patients [2]) of the same compound?
Answer: Its value is 57 (10.9) number (%) of patients.

Question: And the “Adverse event: Hyperesthesia” value (patients [2])?
Answer: Its value is 66 (12.6) number (%) of patients.

Question: And the “Adverse event: Nail Disorder” value (patients [2])?
Answer: The value was 170 (32.4) number (%) of patients.

Question: And the “Adverse event: Paresthesia” value (patients [2])?
Answer: Its value is 56 (10.7) number (%) of patients.

Question: What about the “Adverse event: Paronychia/Nail disorder” value (patients [2]) of the same compound?
Answer: The value was 66 (12.6) number (%) of patients.

Question: What about the “Adverse event: Pruritus” value (patients [2]) of the same compound?
Answer: The value was 157 (29.9) number (%) of patients.

Question: And the “Adverse event: Rhinitis” value (patients [2])?
Answer: The value was 153 (29.1) number (%) of patients.

Question: What about the “Adverse event: Rigors/Chills” value (patients [2]) of the same compound?
Answer: The value was 67 (12.8) number (%) of patients.

Question: And the “Adverse event: Skin peeling/Desquamation” value (patients [2])?
Answer: The value was 345 (65.7) number (%) of patients.

Question: What about the “Adverse event: Sticky skin/Skin disorder” value (patients [2]) of the same compound?
Answer: Its value is 129 (24.6) number (%) of patients.

Question: What about the “Adverse event: Xerophthalmia/Eye disorder” value (patients [2]) of the same compound?
Answer: The value was 112 (21.3) number (%) of patients.

Question: What about the “bioavailability vs body weight” value [3] of the same compound?
Answer: Its value is “increased with a reduced body weight”.

Question: With `CCOC(=O)/C=C(C)/C=C/C=C(C)/C=C/c1c(C)cc(OC)c(C)c1C` [etretinate] as the compound, how does the “bioavailability vs body weight” value [3] read?
Answer: Its value is “increased with a reduced body weight”.

Question: For `CC1=C(/C=C/C(C)=C/C=C/C(C)=C\C(=O)O)C(C)(C)CCC1` [isotretinoin], which “total dose to reach the same peak blood concentration in the fasted state as following a high fat meal” value [4] is on record?
Answer: Its value is “more than doubled”.

Question: What about the “interaction with coadministered contraceptives” value [1] of the same compound?
Answer: Its value is “decreases blood concentrations of both ethinyl estradiol and norethindrone”.

Question: And the “Adverse event: Cheilitis” value (patients [5])?
Answer: The value was 472 (90.2) number (%) of patients.

Question: And the “Adverse event: Conjunctivitis” value (patients [5])?
Answer: The value was 201 (38.4) number (%) of patients.

Question: What about the “Adverse event: Desquamation central face/Desquamation” value (patients [5]) of the same compound?
Answer: The value was 187 (35.8) number (%) of patients.

Question: And the “Adverse event: Dry Skin” value (patients [5])?
Answer: The value was 172 (32.9) number (%) of patients.

Question: And the “Adverse event: Dry nose” value (patients [5])?
Answer: The value was 136 (26.0) number (%) of patients.

Question: What about the “Adverse event: Epistaxis” value (patients [5]) of the same compound?
Answer: Its value is 121 (23.1) number (%) of patients.

Question: And the “Adverse event: Fingertip peeling/Desquamation” value (patients [5])?
Answer: Its value is 63 (12.0) number (%) of patients.

Question: What about the “Adverse event: Headache” value (patients [5]) of the same compound?
Answer: Its value is 44 (8.4) number (%) of patients.

Question: What about the “Adverse event: Irritation of eyes” value (patients [5]) of the same compound?
Answer: The value was 85 (16.3) number (%) of patients.

Question: And the “Adverse event: Joint pain/Arthralgia” value (patients [5])?
Answer: The value was 60 (11.5) number (%) of patients.

Question: What about the “Adverse event: Pruritus” value (patients [5]) of the same compound?
Answer: The value was 127 (24.3) number (%) of patients.

Question: And the “Adverse event: Rash-dermatitis/Rash” value (patients [5])?
Answer: Its value is 82 (15.7) number (%) of patients.

Question: And the “Adverse event: Red Scaly face/Desquamation” value (patients [5])?
Answer: The value was 54 (10.3) number (%) of patients.

Question: What about the “Adverse event: Skin fragility/Skin disorder” value (patients [5]) of the same compound?
Answer: Its value is 164 (31.4) number (%) of patients.

Question: What about the “bioavailability vs body weight” value [3] of the same compound?
Answer: Its value is “increased with a reduced body weight”.

Question: With `CC1(C)CCSc2ccc(C#Cc3ccc(C(=O)O)cn3)cc21` [tazarotenic acid] as the compound, how does the RAR-α activity (RAR-α) read?
Answer: Its RAR-α activity is “minimal”.

Question: And the “receptor specificity and selectivity” value (RARs)?
Answer: Its value is “specificity for the RARs and selectivity for RAR-β and RAR-γ”.

Question: And the “average ratio of Cmax (test/reference)” value ([6]; Day 0, high-fat meal vs fasted)?
Answer: Its value is 1.00.

Question: And the “effect of high-fat meal on bioavailability or pharmacokinetics” value ([6]; single and multiple dose)?
Answer: The value was “does not substantially affect”.

Question: And the “correlation of AUC with body weight” value ([7]; day 0)?
Answer: Its value is “may be a correlation”.

Question: And the “correlation between either Cmax or AUC and body weight” value ([7]; day 9)?
Answer: Its value is “no correlation”.
